Results published in US11998610B2, “Conjugates and methods of using the same” (Flagship Pioneering Innovations V, Inc., priority 2018, dated 2024).
Non-standard residues stand in square brackets, D forms with d. Residues, ends and D or L forms follow the SMILES beside them. *: point of attachment. Butyryl = CCCC(=O)*

Experiments:
[1] = Stability of conjugates in Simulated Gastric Fluid (SGF); assay type: in vitro ADME; conditions: simulated gastric fluid pH 1.6 with pepsin, 1 μM, 37° C.
Experimental: Assay 1. Stability of conjugates in Simulated Gastric Fluid (SGF). This assay was used to assess the stability of a conjugate in a stomach. Medium was prepared by dissolving 2 g of sodium chloride in 0.6 L in ultrapure water (MilliQ®, Millipore Sigma, Darmstadt, Germany). The pH was adjusted to 1.6 with 1N hydrochloric acid, and the volume was then adjusted to 1 L with purified water. 60 mg FaSSIF powder (Biorelevant™, London, UK) were dissolved in 500 mL buffer (above). Pepsin was added (0.1 mg/mL) (Millipore Sigma, Darmstadt, Germany), and the solution was stirred. The resulting SGF media were used fresh for each experiment. Test compounds were dissolved in DMSO stock to 1 mM. An aliquot of the DMSO stock solution was removed and diluted in the SGF Media in 15 mL falcon tubes to generate a total compound concentration of 1 μM. A 1 mL aliquot was immediately removed and diluted once with 1 volume of acetonitrile for T0 timepoint. The mixture was sealed and mixed at 37° C. in an incubator. Aliquots (1 mL) were removed at regular intervals and immediately quenched by the addition of 1 volume of acetonitrile. The resulting samples were analyzed by LC/MS to determine degradation rates in SGF.

[2] = Stability of conjugates in Simulated Intestinal Fluid (SIF); assay type: in vitro ADME; conditions: simulated intestinal fluid pH 6.7 with pancreatin, 1 μM, 37° C.
Experimental: Assay 2. Stability of conjugates in Simulated Intestinal Fluid (SIF). This assay was used to assess the stability of a conjugate in a small intestine. Phosphate buffer was prepared by dissolving 0.42 g of sodium hydroxide pellets and 3.95 g of monobasic sodium phosphate monohydrate and 6.19 g of sodium chloride in ultrapure water (MilliQ®, Millipore Sigma, Darmstadt, Germany). The pH was adjusted to 6.7 using aq. HCl and aq. NaOH, as necessary, and the solution was diluted with ultrapure water to produce 1 L of the pH 6.7 buffer. 112 mg FaSSIF powder (Biorelevant™, London, UK) was dissolved in 50 mL of the pH 6.7 buffer. 2 to 3 mL of the resulting solution were then added to 500 mg pancreatin (Millipore Sigma, Darmstadt, Germany). The resulting mixture was agitated by finger tapping the vessel containing the mixture until milky suspension formed. At this time, the remainder of the 50 mL FaSSiF/pH 6.7 buffer solution was added. The resulting suspension was flipped upside down 10 times to produce SIF, which was used fresh. Test compounds were dissolved in DMSO stock to 1 mM. An aliquot of the DMSO stock solution was removed and diluted in the SIF media in 15 mL falcon tubes to produce a mixture with a tested compound concentration of 1 μM. A 1 mL aliquot was immediately removed and diluted once with 1 volume of acetonitrile for T0 timepoint. The mixture was sealed and agitated at 37° C. in an incubator. Aliquots (1 mL) were removed at regular intervals and immediately quenched by the addition of 1 volume of acetonitrile. The resulting samples were analyzed by LC/MS to determine degradation rates

[3] = In vitro Colonic Material Stability Assay; assay type: in vitro ADME; conditions: for Assay 3 (% Remaining at 24 h): colonic material slurry, anaerobic, 1 or 10 μM
Experimental: Assay 3 In vitro Colonic Material Stability Assay. This assay was used to assess the stability of an acylated active agent in a large intestine. All experiments were performed in an anaerobic chamber containing 90% nitrogen, 5% hydrogen and 5% carbon dioxide. Colonic material was resuspended as a slurry (15% w/v final concentration) in pre-reduced, anaerobically sterilized dilution blanks (Anaerobe Systems AS-908). The colonic material was then inoculated into 96 well plates containing YCFAC media (Anaerobe Systems AS-680) or other suitable media (6.7 μL slurry into 1 mL total media). Compounds or groups of compounds were added to each individual well to reach a final analyte concentration of 1 or 10 μM, and the material was mixed by pipetting. Sample was removed after set timepoints (0, 120, 240, 480, 1440, 2880 minutes after initiation of the assay), quenched with acetonitrile containing internal standard, and analyzed by LC/MS.

[4] = tested on: E. coli BL21(DE3); assay: Cell-based assay with ClbP with LCMS, ClbP negative strain; conditions: 10 μM compound, 37° C., 20 h
Experimental: (§1) This example is representative of the methods described in Example 97. ClbP was tested for its ability to activate compounds. […] Each of these three strains was struck out onto an appropriate solid media such as LB agar or BHI agar. The bacteria were then grown aerobically overnight at 37° C.
(§2) A single colony was isolated from the plate and inoculated into 10 mL LB. The liquid cultures were grown overnight aerobically at 37° C. with rocking on a nutator.
(§3) The saturated E. coli cultures were transferred into a biosafety cabinet. 5 μL of each culture was inoculated into fresh LB broth (200 μL total, 1:40 (v/v) dilution of the overnight culture), and the tested compound was added to a final concentration of 10 μM. To establish the native stability of the compound in media alone, the compound was also added to uninoculated media at a final concentration of 10 μM. Each compound was tested in duplicate with each strain or the media-alone incubation. The plate was sealed and incubated aerobically on a nutator at 37° C. for 20 h.
(§4) After 20 h, the reactions were stopped by addition of 200 μL acetonitrile. The contents of each well were mixed, and then the plate was centrifuged (4,000 rpm, 10 min). The plate was diluted serially to a final dilution of 1:100 first with Acetonitrile (10× dilution) and then with (4:1) Mobile Phase A-20 mM ammonium formate+water:Mobile Phase B-Isopropanol:Methanol:Water (4:4:2)+20 mM ammonium formate (10× dilution).
(§5) The amount of each remaining parent compound in each incubation was quantified by LC-MS analysis, with multiple-reaction monitoring targeting transitions specific to each parent compound.
(§6) The amount of compound present in the media-alone condition was normalized to 100%. The amount of parent compound present in the reaction with the ClbP-encoding E. coli (E. coli CFT073 ATCC 700928 and/or E. coli Nissle 1917) was compared to the amount present in the media-alone and expressed as a percent. Likewise, the amount of parent compound present in the reaction with the negative control E. coli BL21(DE3) was compared to the amount present in the media-alone and expressed as a percent.
(§7) In an ideal case, the amount of residual starting material in the reaction(s) with ClbP-encoding E. coli was <25% of the amount in the E. coli BL21(DE3) and media-alone conditions. In an acceptable case, the amount of residual starting material in the reaction(s) with ClbP-encoding E. coli was 25-75% of the amount in the E. coli BL21(DE3) and media-alone conditions. In a non-preferred case, the amount of residual starting material in the reaction(s) with ClbP-encoding E. coli was >75% of the amount in the E. coli BL21(DE3) and media-alone conditions.

[5] = tested on: E. coli CFT073 ATCC 700928 and/or E. coli Nissle 1917; assay: Cell-based assay with ClbP with LCMS, ClbP positive strain; conditions: ClbP-encoding E. coli, 10 μM compound, 37° C., 20 h
Experimental: as §1, §2, §3, §4, §5, §6, §7

| SMILES | Assay 1 (SGF) (% Remaining @ 1 hours) [1] | Assay 2 (SIF) (% @ Remaining 4 hours) [2] | Assay 3 (% Remaining at 24 h) [3] | % Remaining in ClbP Negative Relative to Media-Only [4] | % Remaining in ClbP Positve Relative to Media-Only [5] | Selective delivery to the colon (conclusion from Table 2) ([3]; from SGF, SIF and colonic material stability) |
| --- | --- | --- | --- | --- | --- | --- |
| COC(=O)[C@H](C)NC(=O)[C@@H](CC(N)=O)NC(=O)C(C)c1ccc(CC(C)C)cc1 (stereo partly drawn) [Example 17, Methyl (2-(4-isobutylphenyl)propanoyl)-D-asparaginyl-L-alaninate] | C (>75% of the tested compound remaining) | A (<25% of the tested compound remaining) | C (>75% of the tested compound remaining) | + (between 25-75% compound remaining in the 20 μM WT ClbP reaction relative to the no-enzyme control) | + (between 25-75% compound remaining in the 20 μM WT ClbP reaction relative to the no-enzyme control) |  |
| CCCCCCCC(=O)N[C@H](CC(N)=O)C(=O)NCCNC(=O)n1cc(F)c(=O)[nH]c1=O [Example 55, (R)—N1-(2-(5-fluoro-2,4-dioxo-1,2,3,4-tetrahydropyrimidine-1-carboxamido)ethyl)-2-octanamidosuccinamide] | C (>75% of the tested compound remaining) | A (<25% of the tested compound remaining) | A (<25% of the tested compound remaining) |  |  |  |
| CCCCCCCC(=O)N[C@H](CC(N)=O)C(=O)NCCCC(=O)OC [Example 43, Methyl (R)-4-(4-amino-2-octanamido-4-oxobutanamido)butanoate] | B (25-75% of the tested compound remaining) | B (25-75% of the tested compound remaining) | B (25-75% of the tested compound remaining) | − (>75% compound remaining in the 20 μM WT ClbP reaction relative to the no-enzyme control) | − (>75% compound remaining in the 20 μM WT ClbP reaction relative to the no-enzyme control) |  |
| CCCC(=O)N[C@H](CC(N)=O)C(=O)N[C@@H](C)CCC(=O)Oc1ccccc1 [Example 25, Phenyl (S)-4-((R)-4-amino-2-butyramido-4-oxobutanamido)pentanoate] | C (>75% of the tested compound remaining) |  | B (25-75% of the tested compound remaining) | − (>75% compound remaining in the 20 μM WT ClbP reaction relative to the no-enzyme control) | + (between 25-75% compound remaining in the 20 μM WT ClbP reaction relative to the no-enzyme control) |  |
| COCCOCCC(=O)N[C@H](CC(N)=O)C(=O)N[C@@H](C)C(=O)OC [Example 61, Methyl (3-(2-methoxyethoxy)propanoyl)-D-asparaginyl-L-alaninate] | C (>75% of the tested compound remaining) | B (25-75% of the tested compound remaining) | C (>75% of the tested compound remaining) | − (>75% compound remaining in the 20 μM WT ClbP reaction relative to the no-enzyme control) | + (between 25-75% compound remaining in the 20 μM WT ClbP reaction relative to the no-enzyme control) |  |
| CCCCCCCC(=O)N[C@H](CC(N)=O)C(=O)NCCCC(=O)Oc1ccc2c(C)cc(=O)oc2c1 [Example 67, 4-methyl-2-oxo-2H-chromen-7-yl (R)-4-(4-amino-2-octanamido-4-oxobutanamido)butanoate] | C (>75% of the tested compound remaining) | A (<25% of the tested compound remaining) |  |  |  |  |
| CCCCCCCCCCCCCC(=O)N[C@H](CC(N)=O)C(=O)NCCC(C)(C)C(=O)OC [Example 34, Methyl (R)-4-(4-amino-4-oxo-2-tetradecanamidobutanamido)-2,2-dimethylbutanoate] | C (>75% of the tested compound remaining) |  | C (>75% of the tested compound remaining) | − (>75% compound remaining in the 20 μM WT ClbP reaction relative to the no-enzyme control) | + (between 25-75% compound remaining in the 20 μM WT ClbP reaction relative to the no-enzyme control) |  |
| CCCCCCCC(=O)N[C@H](CC(N)=O)C(=O)NCCNC(=O)Oc1ccc2c(C)cc(=O)oc2c1 [Example 69, 4-methyl-2-oxo-2H-chromen-7-yl (R)-(2-(4-amino-2-octanamido-4-oxobutanamido)ethyl)carbamate] | C (>75% of the tested compound remaining) | A (<25% of the tested compound remaining) | A (<25% of the tested compound remaining) |  |  |  |
| CCCC(=O)N[C@H](CC(N)=O)C(=O)N[C@@H](C)C(=O)OC [Example 12, Methyl butyryl-D-asparaginyl-L-alaninate] (Butyryl-[dN]-Ala-OMe) |  | C (>75% of the tested compound remaining) | A (<25% of the tested compound remaining) | + (between 25-75% compound remaining in the 20 μM WT ClbP reaction relative to the no-enzyme control) |  | can be selectively delivered to the colon |
